Experimental data taken from PMC9792986, “Synthesis and characterization of semisynthetic analogs of the antifungal occidiofungin” (Frontiers in Microbiology, 2022).
Where “and” joins values, the source holds several entries; their conditions need not be identical. Equal values may be shown once. Starred links: 1 amine or outer side, 2 acyl side, 3 side chain; linkers in the order of their positions; H or OH if unused. Non-standard residues stand in square brackets, D forms with d. Residues, ends and D or L forms follow the SMILES beside them. X3 = O=C([C@@H](N[*:1])C(O)c1ccc(O)cc1)[*:2]; X2 = CCCCCCCCCCCCNCCC(CC(=O)[*:2])N[*:1]; X1 = NC(=O)C(O)[C@H](N[*:1])C(=O)[*:2]; Dab = NCC[C@H](N)C(=O)O

Columns and labels:
[1] = system: S. cerevisiae, Candida albicans, and Candida glabrata; assay: MIC comparison with native occidiofungin over the yeasts tested; format: cell-based; details: against the Candida species tested and S. cerevisiae strain tested
Protocol: (§1) MIC assays were performed in duplicate following a modified version of the CLSI M27-A3 protocol as previously described ([Ravichandran et al., 2019]).

[2] = HPLC percentage of water at elution (polarity); format: physicochemical; details: chromatographic, analytical C18 (Agilent ZORBAX ODS, 5 μm, 4.6 × 250 mm); 30-min gradient from 90 to 20% water/ACN, 0.1% TFA; UV 220 nm; used as measure of polarity
Protocol: A two-step procedure of reductive amination was used to introduce a primary or secondary amine onto the aldehyde analog. The first step of reaction involves the formation of an intermediate carbinol amine, which is then dehydrated and protonated to form an iminium ion. Subsequent reduction of this iminium ion with sodium borohydride produces an alkylated amine product. The aldehyde analog of occidiofungin was dissolved in DMSO at a concentration of 10 mg/ml. Three amines (undecylamine, dodecylamine, and DL-dihydrosphingosine) were used for reductive amination. Aldehyde analog (10 μl of DMSO stock solution; 100 μg) was mixed with 10-fold excess of an amino lipid (molar ratio) in 400 μl pure methanol. The sample was then incubated at room temperature for at least 16 h. Solid sodium borohydride (6 mg) was weighted on an analytical balance (Adventurer™ Pro AV114C, Ohaus Corporation, USA) and was directly transferred into the reaction mixture, mixed well, and was incubated at room temperature for 5 min. The reaction mixture was diluted to 1 ml with 50% ACN 0.1% TFA and was separated by HPLC using a 30-min gradient from 90 to 20% water/ACN on the analytical C18 column. HPLC solvents contained 0.1% TFA. Products that eluted between 50% and 30% water were collected and analyzed by electrospray ionization mass spectrometry (ESI-MS) on a ThermoFisher DecaXP ion trap mass spectrometer. The yield of each HPLC sample was quantified by comparing the peak area of each analog to the peak area of a 100 μg standard of occidiofungin. Electrospray ionization mass spectrometry (ESI-MS) experiments were performed using a Thermo Scientific Q Exactive Focus. Sample was loop injected (10 μl) and acetonitrile with 0.1% formic acid was used as a mobile phase at a flow rate of 600 μl/min. The Q Exactive Focus HESI source was operated in full MS in positive mode. The mass resolution was tuned to 70,000 FWHM at m/z 200. The spray voltage was set to 3.5 kV, and the sheath gas and auxiliary gas flow rates were set to 40 and 10 arbitrary units, respectively. The transfer capillary temperature was held at 300°C and the S-Lens RF level was set at 50 v. Exactive Series 2.11 /Xcalibur 4.2.47 software was used for data acquisition and processing. The alkyne occidiofungin (alkyne-OCF) used for fluorescent microscopy was synthesized as previously described ([Ravichandran et al., 2019]).

[3] = system: Saccharomyces cerevisiae cells; assay: Fluorescent microscopy and competitive binding (uptake) assay with alkyne-occidiofungin; format: cell-based; details: 5 min pretreatment at 1X MIC of native occidiofungin, then 1X MIC alkyne-OCF 30 min; fluorescence microscopy
Protocol: After 30 min, the cells were fixed then permeabilized. Click reaction was performed with azide-derivatized Alexa Fluor 488 as per the kit-supplied protocol (Click-iT EdU imaging kit; Thermo Fisher Scientific). The cells were suspended in […]® Antifade Mounting Medium and visualized with a Leica DM 6B microscope. […] The cells were then fixed, permeabilized and Click reaction was performed as previously described ([Ravichandran et al., 2019]).

[4] = system: Saccharomyces cerevisiae DGY6 haploid BY4741; assay: Minimum inhibitory concentration assay; format: cell-based; details: for fold of native compound's concentration at which completely inactive: against S. cerevisiae; for MIC: S. cerevisiae DGY6 haploid BY4741, modified CLSI M27-A3, 24 h incubation, duplicate
Protocol: as §1

[5] = system: G-actin; assay: Pyrene labeled actin polymerization assay; format: biochemical; details: 5 μM compound; duplicate
Protocol: (§2) Actin polymerization and depolymerization assays were performed using the Actin polymerization biochem kit (# BK003; Cytoskeleton, Inc. Denver, CO) following the manufacturer’s instructions with some modifications. Briefly, for the polymerization assay, G-actin stock solution was made at 0.2 mg/ml instead of 0.4 mg/ml. For the depolymerization assay, F-actin stock solution was diluted nine-fold instead of five-fold. Test compounds including phalloidin, DL-dihydrosphingosine analog, and native occidiofungin were tested at a final concentration of 5 μM. The experiments were done in duplicate.

[6] = system: F-actin; assay: Pyrene labeled actin depolymerization assay; format: biochemical; details: 5 μM compound; duplicate
Protocol: as §2

[7] = system: Candida albicans ATCC 3147; assay: Minimum inhibitory concentration assay; format: cell-based; details: C. albicans ATCC 3147; modified CLSI M27-A3; 24 h incubation; duplicate
Protocol: as §1

[8] = system: Candida glabrata ATCC 2001; assay: Minimum inhibitory concentration assay; format: cell-based; details: C. glabrata ATCC 2001; modified CLSI M27-A3; 24 h incubation; duplicate
Protocol: as §1

[9] = target: T1, F-actin (rabbit skeletal muscle filamentous actin) (Oryctolagus cuniculus, UniProt P68135); parameters: method as in Ravichandran et al., 2019; details: co-sedimentation, published previously, ref Ravichandran et al., 2019, cited from earlier work; for Kd: read-out: Kd value for binding to F-actin
T1 construct: Purified rabbit skeletal muscle filamentous actin (AKF99); purchased Cytoskeleton Inc. (Denver, CO) AKF99; host or cells: rabbit skeletal muscle (tissue-purified)

Row | Compound | fold of native occidiofungin's inhibitory concentration at which inactive [1] | percentage of water for the HPLC retention time [2] | effect of pretreatment on internalization of alkyne-OCF [3] | fold of native compound's concentration at which completely inactive [4] | effect on actin polymerization (in words) [5] | effect on actin depolymerization (in words) [6] | MIC [7] | MIC [8] | MIC [4] | saturation of binding ratio (ligand:actin monomer) [9] | Kd [9]
1 | CCCCCCCCCCCCNCCC1CC(=O)N[C@@H](CO)C(=O)N[C@@H](C(O)c2ccc(O)cc2)C(=O)N[C@@H](CCN)C(=O)NCC(=O)N[C@@H](CC(N)=O)C(=O)N[C@@H](CO)C(=O)N[C@@H](C(O)C(N)=O)C(=O)N1 (stereo partly drawn) [Dodecylamine] (cyclo([X1][X2]S[X3][Dab]GNS)) | 64 fold | 47% | did not interfere with the internalization of the alkyne-OCF | 64 fold |  |  |  |  |  |  | 
2 | DL-dihydrosphingosine |  | 33% |  |  | did not interfere with polymerization or depolymerization | did not interfere with polymerization or depolymerization | 16 µg/mL | 8 µg/mL | 2 µg/mL |  | 
3 | Undecylamine | 64 fold | 50% |  | 64 fold |  |  | >32 µg/mL | >8 µg/mL | >4 µg/mL |  | 
4 | occidiofungin [Native occidiofungin, reference compound] |  | 48% | prevented internalization of alkyne-OCF |  | did not interfere with polymerization or depolymerization | did not interfere with polymerization or depolymerization | 0.5 µg/mL | 0.5 µg/mL | 0.0625 µg/mL | more than 20 molecules of occidiofungin to one actin monomer | 1050 nM
5 | phalloidin |  |  |  |  |  | completely blocked the depolymerization of F-actin |  |  |  |  | ~8 nM and 8 nM
